Experimental data published in ChEMBL document CHEMBL1201862, “PubChem BioAssay data set” (2004).
Activity calls are given as the source filed them.

Experiments:
[1] = test system: Streptococcus; experiment: Group A Streptococcus viability loss, dose response, counter-screen for streptokinase expression inhibitor project, luminescence, BacTiterGlo (AID 1915); format: functional, organism-based;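 note: potency for reduction of bacterial viability or growth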
[2] = inhibitors of intracellular T. cruzi replication, confirmation, NIH3T3 host cells, beta-gal luminescence (AID 2044); format: functional, cell-based;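 note: intracellular parasites grown in NIH/3T3 mouse fibroblasts as host cells; luminescent beta-galactosidase reporter signal from transgenic T. cruzi replicating inside host cells; inhibitors lower the luminescence signal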
[3] = target: T1, Protein RecA (Mycobacterium tuberculosis, UniProt P9WHJ3); experiment: Fluorescence Cell-Free Homogeneous Dose Retest to Identify Inhibitors of RecA-Intein Splicing Activity. [Related pubchem assays (depositor defined):AID2097, AID2223, AID489010, AID492950]; format: functional
T1 sequence (P9WHJ3 whole entry): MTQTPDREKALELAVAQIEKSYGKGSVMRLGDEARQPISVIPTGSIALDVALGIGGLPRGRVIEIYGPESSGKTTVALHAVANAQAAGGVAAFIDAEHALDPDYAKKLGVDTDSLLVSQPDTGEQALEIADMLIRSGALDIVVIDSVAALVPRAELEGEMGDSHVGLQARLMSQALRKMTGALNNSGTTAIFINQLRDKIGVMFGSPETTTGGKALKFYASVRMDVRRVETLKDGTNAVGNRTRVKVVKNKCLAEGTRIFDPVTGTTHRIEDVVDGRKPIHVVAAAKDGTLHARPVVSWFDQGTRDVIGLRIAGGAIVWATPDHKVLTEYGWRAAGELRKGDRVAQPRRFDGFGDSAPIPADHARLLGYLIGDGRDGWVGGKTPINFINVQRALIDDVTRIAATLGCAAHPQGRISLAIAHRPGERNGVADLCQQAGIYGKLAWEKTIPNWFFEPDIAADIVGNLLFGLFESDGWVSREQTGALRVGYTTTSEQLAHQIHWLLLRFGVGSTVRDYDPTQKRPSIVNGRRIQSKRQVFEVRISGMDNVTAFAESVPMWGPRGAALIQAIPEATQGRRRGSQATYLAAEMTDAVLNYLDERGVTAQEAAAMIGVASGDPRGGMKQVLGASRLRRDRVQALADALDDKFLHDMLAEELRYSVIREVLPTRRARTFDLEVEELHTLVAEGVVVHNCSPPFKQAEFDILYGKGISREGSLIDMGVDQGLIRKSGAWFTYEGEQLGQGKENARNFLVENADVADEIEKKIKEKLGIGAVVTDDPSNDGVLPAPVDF

[4] = cytotoxicity toward NIH3T3 fibroblasts, dose response, counter-screen, cell-based, ATP luminescence, mouse fibroblasts (AID 2010); format: functional;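 note: cells exposed to compound for about 90 hours before reading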
[5] = target: Melanocortin receptor 4 (Homo sapiens, UniProt P32245); format: functional, cell-based;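 note: Cell-based assay with luminescence read-out, confirmatory dose-response testing for agonist activity of biased ligands at MC4R; human U2OS cells with tagged receptor and beta-arrestin; potency of agonists that increase receptor coupling to beta-arrestin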
[6] = target: T2, Streptokinase A (Streptococcus pyogenes serotype M1, UniProt P10520); experiment: S. pyogenes streptokinase expression inhibitors, potency, dose response, plasminogen activation absorbance, OD405 (AID 1914); format: functional, Streptococcus pyogenes M1 GAS;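 note: secreted streptokinase activity via plasminogen activation per viability signal from cell pellet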
T2 sequence (P10520 whole entry): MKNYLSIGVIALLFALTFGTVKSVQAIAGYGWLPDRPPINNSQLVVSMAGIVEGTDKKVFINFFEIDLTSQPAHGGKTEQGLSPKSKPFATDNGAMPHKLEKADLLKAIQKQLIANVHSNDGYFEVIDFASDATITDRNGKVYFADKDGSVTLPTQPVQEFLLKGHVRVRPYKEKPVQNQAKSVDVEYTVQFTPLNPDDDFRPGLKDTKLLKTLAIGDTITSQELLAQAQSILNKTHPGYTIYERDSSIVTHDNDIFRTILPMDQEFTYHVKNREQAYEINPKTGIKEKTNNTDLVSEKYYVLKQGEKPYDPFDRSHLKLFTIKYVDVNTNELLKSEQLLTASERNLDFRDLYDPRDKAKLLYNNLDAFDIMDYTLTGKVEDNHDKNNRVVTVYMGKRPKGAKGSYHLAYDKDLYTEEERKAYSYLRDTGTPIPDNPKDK

[7] = test system: Streptococcus sp. 'group A'; experiment: growth inhibition of control SK(-) GAS strain, dose response, counter-screen for streptokinase expression inhibitor project, luminescence, kanamycin, BacTiterGlo, confirmation (AID 1900); format: functional, organism-based
[8] = Luminescence Cell-Based Dose Retest to Confirm Inhibitors of Cancer Stem Cells. [Related pubchem assays (depositor defined):AID2717, AID2721]; format: functional; conditions: Homo sapiens
[9] = target: T3, Heat shock factor protein 1 (Mus musculus, UniProt P38532); experiment: HSF1 potentiators in luciferase reporter cells, confirmation, cell-based, NIH3T3, luminescence, dose retest (AID 435004); format: functional;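 note: stress induced by proteasome inhibitor MG132 added 30 min after compound; luciferase reporter driven by HSF1 response element in NIH3T3 cells; actives raise luminescence as potentiators of the MG132 stress response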
T3 sequence (P38532 whole entry): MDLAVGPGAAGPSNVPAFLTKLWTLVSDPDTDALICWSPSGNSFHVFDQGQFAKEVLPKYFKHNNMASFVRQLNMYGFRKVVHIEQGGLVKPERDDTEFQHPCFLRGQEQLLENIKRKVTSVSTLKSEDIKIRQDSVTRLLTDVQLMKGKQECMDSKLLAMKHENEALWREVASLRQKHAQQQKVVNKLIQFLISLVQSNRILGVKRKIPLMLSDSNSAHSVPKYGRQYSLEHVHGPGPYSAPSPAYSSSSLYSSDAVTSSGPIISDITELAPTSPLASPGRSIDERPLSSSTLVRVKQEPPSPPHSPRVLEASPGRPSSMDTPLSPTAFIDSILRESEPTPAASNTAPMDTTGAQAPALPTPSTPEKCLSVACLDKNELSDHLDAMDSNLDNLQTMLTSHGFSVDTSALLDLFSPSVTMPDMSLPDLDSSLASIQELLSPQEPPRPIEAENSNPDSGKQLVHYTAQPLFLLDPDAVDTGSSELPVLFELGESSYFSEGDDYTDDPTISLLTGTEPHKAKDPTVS

[10] = target: T4, Replicative DNA helicase DnaB (Mycobacterium tuberculosis, UniProt P9WMR3); experiment: DnaB intein splicing inhibitors, dose response, biochemical, cell-free fluorescence (AID 449749); format: functional
T4 sequence (P9WMR3 whole entry): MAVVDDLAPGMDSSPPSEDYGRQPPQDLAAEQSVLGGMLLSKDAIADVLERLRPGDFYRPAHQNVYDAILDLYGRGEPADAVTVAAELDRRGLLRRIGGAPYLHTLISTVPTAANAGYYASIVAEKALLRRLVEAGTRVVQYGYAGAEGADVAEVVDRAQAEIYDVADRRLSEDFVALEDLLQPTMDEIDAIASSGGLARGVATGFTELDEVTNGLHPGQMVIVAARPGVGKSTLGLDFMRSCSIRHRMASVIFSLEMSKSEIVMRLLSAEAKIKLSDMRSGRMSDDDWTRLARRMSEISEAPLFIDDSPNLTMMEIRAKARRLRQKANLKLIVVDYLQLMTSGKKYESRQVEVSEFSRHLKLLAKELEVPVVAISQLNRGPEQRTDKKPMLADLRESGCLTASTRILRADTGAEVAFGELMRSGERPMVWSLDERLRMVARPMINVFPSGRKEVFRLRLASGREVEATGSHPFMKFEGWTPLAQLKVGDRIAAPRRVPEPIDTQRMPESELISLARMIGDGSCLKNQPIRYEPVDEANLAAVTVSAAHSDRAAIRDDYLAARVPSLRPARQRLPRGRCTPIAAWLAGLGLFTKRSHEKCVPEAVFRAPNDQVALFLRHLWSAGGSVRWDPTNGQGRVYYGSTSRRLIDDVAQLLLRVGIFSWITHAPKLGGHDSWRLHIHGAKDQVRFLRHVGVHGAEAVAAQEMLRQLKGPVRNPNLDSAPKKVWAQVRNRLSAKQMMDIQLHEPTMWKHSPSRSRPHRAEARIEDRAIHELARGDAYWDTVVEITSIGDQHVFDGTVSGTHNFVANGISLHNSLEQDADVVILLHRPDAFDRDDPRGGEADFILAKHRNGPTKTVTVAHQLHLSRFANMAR

[11] = target: Mu-type opioid receptor (Homo sapiens, UniProt P35372); format: functional, cell-based;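 note: U2OS cells with beta-arrestin recruitment to OPRM1 by beta-gal complementation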
[12] = target: 5-hydroxytryptamine receptor 2A (Mus musculus, UniProt P35363); format: functional, cell-based;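 note: CHO-K1 cells with tagged receptor and beta-arrestin; agonist potency measured as compound-induced activation of the receptor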
[13] = target: Heat shock protein HSP 90-alpha (Homo sapiens, UniProt P07900); format: functional, organism-based
[14] = Shn3 3'UTR reporter inhibitors, dose response, cell-based, Clone20 osteoblasts, firefly luciferase, cherry-picked (AID 624132); format: functional;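 note: firefly luciferase luminescence from reporter carrying the Shn3 3'UTR in osteoblasts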
[15] = target: Beta-galactosidase (Escherichia coli, UniProt Q8VNN2); experiment: Dose response counterscreen for EBI2 assay utilizing the enzyme, b-galactosidase.; format: functional
[16] = HEp-2 cell cytotoxicity, dose response, cytotoxicity control for RSV inhibitor project, HTS (AID 2410); format: functional; conditions: human respiratory syncytial virus
[17] = target: Adenosylmethionine-8-amino-7-oxononanoate aminotransferase (Mycobacterium tuberculosis, UniProt P9WQ81); experiment: Mycobacterium tuberculosis BioA enzyme inhibitor Measured in Biochemical System Using Plate Reader - 2163-02_Inhibitor_Dose_CherryPick_Activity.; format: functional, Mycobacterium tuberculosis UT205
[18] = HEK293 cell viability, dose response, counter-screen for EBV LMP1 inhibitor project, dry powder, set 2 (AID 624374); format: functional

5-hydroxytryptamine receptor 2A, sequence (P35363 whole entry): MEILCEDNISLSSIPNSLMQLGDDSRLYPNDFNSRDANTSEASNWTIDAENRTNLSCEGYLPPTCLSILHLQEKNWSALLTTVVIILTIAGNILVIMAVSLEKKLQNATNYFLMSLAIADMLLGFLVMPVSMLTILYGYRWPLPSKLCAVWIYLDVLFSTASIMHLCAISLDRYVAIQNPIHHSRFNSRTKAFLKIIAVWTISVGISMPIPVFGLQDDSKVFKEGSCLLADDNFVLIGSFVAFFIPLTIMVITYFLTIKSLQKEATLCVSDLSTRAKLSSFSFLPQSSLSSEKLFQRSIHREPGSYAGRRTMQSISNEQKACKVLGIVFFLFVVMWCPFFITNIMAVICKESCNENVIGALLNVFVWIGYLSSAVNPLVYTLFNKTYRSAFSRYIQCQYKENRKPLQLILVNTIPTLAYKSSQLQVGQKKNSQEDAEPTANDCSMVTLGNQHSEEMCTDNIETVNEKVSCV
Mu-type opioid receptor, sequence (P35372 whole entry): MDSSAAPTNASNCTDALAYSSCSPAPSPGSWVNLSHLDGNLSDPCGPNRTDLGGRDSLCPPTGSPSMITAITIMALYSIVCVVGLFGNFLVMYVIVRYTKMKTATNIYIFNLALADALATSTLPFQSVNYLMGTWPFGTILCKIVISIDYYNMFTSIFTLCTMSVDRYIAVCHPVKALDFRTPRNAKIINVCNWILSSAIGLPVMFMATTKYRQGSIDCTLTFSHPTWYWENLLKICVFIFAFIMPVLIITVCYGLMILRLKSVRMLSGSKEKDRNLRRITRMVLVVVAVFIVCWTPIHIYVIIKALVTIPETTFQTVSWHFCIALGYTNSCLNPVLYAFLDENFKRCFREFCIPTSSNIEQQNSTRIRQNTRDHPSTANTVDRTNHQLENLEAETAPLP
Melanocortin receptor 4, sequence (P32245 whole entry): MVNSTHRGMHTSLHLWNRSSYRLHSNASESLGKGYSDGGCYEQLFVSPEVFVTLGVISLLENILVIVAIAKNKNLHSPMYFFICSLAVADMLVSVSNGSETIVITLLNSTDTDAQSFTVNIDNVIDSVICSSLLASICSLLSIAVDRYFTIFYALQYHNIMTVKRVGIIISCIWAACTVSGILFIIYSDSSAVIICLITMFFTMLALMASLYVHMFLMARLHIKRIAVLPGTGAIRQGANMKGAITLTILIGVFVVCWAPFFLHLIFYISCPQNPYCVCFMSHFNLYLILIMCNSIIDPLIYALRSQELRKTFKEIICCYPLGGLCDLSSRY
Beta-galactosidase, sequence (Q8VNN2 whole entry): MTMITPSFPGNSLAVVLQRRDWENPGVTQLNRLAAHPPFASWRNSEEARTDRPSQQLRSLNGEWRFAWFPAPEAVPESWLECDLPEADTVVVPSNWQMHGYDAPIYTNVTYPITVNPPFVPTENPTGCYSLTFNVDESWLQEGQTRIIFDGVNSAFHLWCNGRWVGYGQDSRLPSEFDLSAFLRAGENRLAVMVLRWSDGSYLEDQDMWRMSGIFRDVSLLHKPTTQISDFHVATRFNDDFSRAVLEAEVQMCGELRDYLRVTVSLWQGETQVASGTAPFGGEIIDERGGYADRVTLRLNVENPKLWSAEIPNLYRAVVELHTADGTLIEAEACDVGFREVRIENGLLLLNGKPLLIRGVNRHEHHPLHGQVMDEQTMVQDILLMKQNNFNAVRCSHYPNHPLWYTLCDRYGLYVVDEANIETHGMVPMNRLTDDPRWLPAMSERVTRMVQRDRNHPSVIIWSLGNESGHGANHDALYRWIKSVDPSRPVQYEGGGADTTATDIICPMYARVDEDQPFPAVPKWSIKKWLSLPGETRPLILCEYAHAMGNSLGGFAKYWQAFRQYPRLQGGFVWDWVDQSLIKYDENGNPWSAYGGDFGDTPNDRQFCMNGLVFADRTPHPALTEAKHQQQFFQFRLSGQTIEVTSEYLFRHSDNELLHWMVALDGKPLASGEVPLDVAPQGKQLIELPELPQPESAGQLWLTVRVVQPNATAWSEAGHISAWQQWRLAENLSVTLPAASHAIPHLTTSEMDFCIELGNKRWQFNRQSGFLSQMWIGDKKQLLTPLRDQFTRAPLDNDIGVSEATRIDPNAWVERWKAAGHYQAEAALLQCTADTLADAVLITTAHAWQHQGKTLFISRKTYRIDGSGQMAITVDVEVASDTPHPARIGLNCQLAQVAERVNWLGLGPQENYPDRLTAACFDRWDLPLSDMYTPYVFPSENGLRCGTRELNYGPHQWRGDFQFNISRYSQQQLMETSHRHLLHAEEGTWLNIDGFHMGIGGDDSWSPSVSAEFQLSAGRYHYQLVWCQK
Adenosylmethionine-8-amino-7-oxononanoate aminotransferase, sequence (P9WQ81 whole entry): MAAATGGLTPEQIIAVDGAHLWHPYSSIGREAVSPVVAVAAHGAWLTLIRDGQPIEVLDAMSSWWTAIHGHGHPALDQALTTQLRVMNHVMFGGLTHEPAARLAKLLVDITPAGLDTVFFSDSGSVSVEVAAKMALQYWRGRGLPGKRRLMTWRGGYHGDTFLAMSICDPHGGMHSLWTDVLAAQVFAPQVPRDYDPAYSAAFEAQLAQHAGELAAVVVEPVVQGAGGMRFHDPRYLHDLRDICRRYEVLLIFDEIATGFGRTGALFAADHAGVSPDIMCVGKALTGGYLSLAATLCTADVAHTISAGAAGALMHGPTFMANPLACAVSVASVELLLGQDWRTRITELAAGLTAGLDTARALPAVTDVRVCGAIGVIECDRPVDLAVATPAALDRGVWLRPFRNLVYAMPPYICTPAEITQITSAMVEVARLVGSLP

O=C1C2=C(N=C(S)NC2c2ccc(Cl)cc2)NC(c2ccc(Cl)cc2)N1c1ccc(Cl)cc1 (stereo not drawn)
EC50 [1]: 2.61 µM (active) | EC50 [2]: 3.44 µM (active) | EC50 [3]: 13.1 µM (active) | EC50 [4]: > 60 µM (not active) | EC50 [5]: 9.63 µM (active) | EC50 [6]: > 150 µM (not active) | EC50 [7]: 1.89 µM (active) | AC50 [8]: 4.68 µM (active) | EC50 [9]: > 260 µM (inactive) | AC50 [10]: 5.92 µM (active)

COc1cccc(-c2nc(NC3CCCC3)c3ccccc3n2)c1O
EC50 [1]: > 150 µM (not active) | EC50 [11]: 92.4 µM (inactive) | EC50 [12]: 7.62 µM (active) | EC50 [6]: 78.1 µM (inconclusive) | AC50 [13]: 3.8 µM (active) | AC50 [14]: 25 µM (active) | EC50 [7]: 5.91 µM (active)

Cc1ccc(C)c(N2CCN(C(=O)c3cc4c(C)nc5ccccc5c4o3)CC2)c1
IC50 [15]: > 80 µM (inactive) | CC50 [16]: 8.05 µM (active)

O=C(NCC(c1ccco1)N1CCN(c2ccccc2F)CC1)C1CCCCC1 (stereo not drawn)
EC50 [11]: 92.5 µM (inactive) | EC50 [12]: 76.1 µM (inactive)

CCC(=O)N1CC[C@@H]2[C@H]1c1cc(-c3cccc(F)c3)ccc1N(C)[C@@H]2CO
AC50 [17]: 2.44 µM (active)

CO[C@H]1CN(C)C(=O)c2ccc(NC(=O)C3CC3)cc2OC[C@H](C)N(C(=O)c2ccccn2)C[C@H]1C
AbsAC35 [18]: 207.94 µM
